Experimental findings from ChEMBL document CHEMBL1148979, “Thiobutacin, a novel antifungal and antioomycete antibiotic from Lechevalieria aerocolonigenes” (2004) are described below.

Values after ≈ are worked out from the molar mass of the structure shown.

What all share (format): functional
Experiment [1] relates to Phytophthora capsici. The experiment in a line: Antioomycete activity against Phytophthora capsici by microtiter broth dilution assay.
Experiment [2] concerns Botrytis cinerea. Kind of experiment: Antifungal activity against Botrytis cinerea.
Experiment [3] relates to Saccharomyces cerevisiae. Kind of experiment: Antimicrobial activity against Saccharomyces cerevisiae.

Regarding `COCC(=O)N(c1c(C)cccc1C)C(C)C(=O)OC` (stereo not drawn) [METALAXYL], the MIC in experiment [1] came to 30 µg/mL (≈ 107 µM).
`Clc1ccc(COC(Cn2ccnc2)c2ccc(Cl)cc2Cl)c(Cl)c1` (stereo not drawn) [MICONAZOLE]: the minimal inhibitory concentration (MIC) in experiment [2] is 10 µg/mL (≈ 24 µM); in experiment [3] it was 5 µg/mL (≈ 12 µM).
`CSC(CC(=O)c1ccccc1N)C(=O)O` (stereo not drawn) [THIOBUTACIN]: the MIC in experiment [1] was found to be 10 µg/mL (≈ 41.8 µM); in experiment [2], 50 µg/mL (≈ 209 µM); in experiment [3] it was 30 µg/mL (≈ 125 µM).
In the case of NYSTATIN, the MIC in experiment [2] came to 3 µg/mL; in experiment [3], 7 µg/mL.
